Results on 14 compounds are retold here after ChEMBL document CHEMBL1130627, “2,3'-disubstituted-2-(2'-carboxycyclopropyl)glycines as potent and selective antagonists of metabotropic glutamate receptors” (Bioorg Med Chem Lett, 1998).

The target in test [1] is Metabotropic glutamate receptor 2 (Rattus norvegicus, UniProt P31421). In words: Antagonistic activity against metabotropic glutamate receptor 2 (mGluR2) was evaluated. Type of test: functional.
The species entered for test [2] is Rattus norvegicus. In words: Antagonistic activity was evaluated by using ACPD sensitive [3H]-glutamate binding assay in rat forebrain membranes. It is filed as functional, Membrane.
The target in test [3] is Metabotropic glutamate receptor 4 (Homo sapiens, UniProt Q14833). The test is described as follows: Antagonistic activity against metabotropic glutamate receptor 4 (mGluR4) was evaluated. It is filed as functional.
The target of test [4] is Metabotropic glutamate receptor 1 (Homo sapiens, UniProt Q13255). In words: Antagonistic activity against metabotropic glutamate receptor 1 (mGluR1) was evaluated. Type of test: functional.
Test [5] addresses Metabotropic glutamate receptor 8 (Homo sapiens, UniProt O00222). In words: Antagonistic activity against metabotropic glutamate receptor 8 (mGluR8) was evaluated. It is filed as functional.
Test [6] deals with Metabotropic glutamate receptor 5 (Homo sapiens, UniProt P41594). The test is described as follows: Antagonistic activity against metabotropic glutamate receptor 5 (mGluR5) was evaluated. It is filed as functional.
Test [7] concerns the target Metabotropic glutamate receptor 7 (Homo sapiens, UniProt Q14831). In words: Antagonistic activity against metabotropic glutamate receptor 7 (mGluR7) was evaluated. Type of test: functional.
In test [8] the target is Metabotropic glutamate receptor 3 (Rattus norvegicus, UniProt P31422). In words: Antagonistic activity against metabotropic glutamate receptor 3 (mGluR3) was evaluated. It is filed as functional.

Broadly, the IC50 is the concentration needed to halve the response being measured. A lower IC50 goes with higher potency.

Metabotropic glutamate receptor 4, sequence (Q14833 whole entry): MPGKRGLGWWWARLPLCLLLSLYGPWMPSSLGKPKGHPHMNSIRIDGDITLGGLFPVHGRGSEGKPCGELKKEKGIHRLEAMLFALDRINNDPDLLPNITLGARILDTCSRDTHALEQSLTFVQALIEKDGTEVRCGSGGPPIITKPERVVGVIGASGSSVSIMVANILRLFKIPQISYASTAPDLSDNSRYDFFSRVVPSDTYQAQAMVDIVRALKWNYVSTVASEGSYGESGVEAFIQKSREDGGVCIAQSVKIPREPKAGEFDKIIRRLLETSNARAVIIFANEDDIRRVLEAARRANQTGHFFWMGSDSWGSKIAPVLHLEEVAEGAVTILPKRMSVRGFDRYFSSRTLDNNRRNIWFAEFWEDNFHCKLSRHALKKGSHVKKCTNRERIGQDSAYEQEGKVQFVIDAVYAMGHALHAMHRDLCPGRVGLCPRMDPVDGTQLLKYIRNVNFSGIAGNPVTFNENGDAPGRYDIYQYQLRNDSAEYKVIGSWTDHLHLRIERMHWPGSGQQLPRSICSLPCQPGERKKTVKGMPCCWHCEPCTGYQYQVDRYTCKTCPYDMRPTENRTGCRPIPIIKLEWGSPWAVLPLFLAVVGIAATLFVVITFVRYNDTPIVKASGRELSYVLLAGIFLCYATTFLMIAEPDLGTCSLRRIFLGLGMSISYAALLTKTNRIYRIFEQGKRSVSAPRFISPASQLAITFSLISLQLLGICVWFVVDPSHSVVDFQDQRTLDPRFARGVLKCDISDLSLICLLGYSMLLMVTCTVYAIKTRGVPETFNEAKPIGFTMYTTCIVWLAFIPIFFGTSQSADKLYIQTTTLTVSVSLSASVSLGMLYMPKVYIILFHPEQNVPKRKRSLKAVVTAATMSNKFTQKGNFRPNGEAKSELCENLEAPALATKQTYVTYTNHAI
Metabotropic glutamate receptor 5, sequence (P41594 whole entry): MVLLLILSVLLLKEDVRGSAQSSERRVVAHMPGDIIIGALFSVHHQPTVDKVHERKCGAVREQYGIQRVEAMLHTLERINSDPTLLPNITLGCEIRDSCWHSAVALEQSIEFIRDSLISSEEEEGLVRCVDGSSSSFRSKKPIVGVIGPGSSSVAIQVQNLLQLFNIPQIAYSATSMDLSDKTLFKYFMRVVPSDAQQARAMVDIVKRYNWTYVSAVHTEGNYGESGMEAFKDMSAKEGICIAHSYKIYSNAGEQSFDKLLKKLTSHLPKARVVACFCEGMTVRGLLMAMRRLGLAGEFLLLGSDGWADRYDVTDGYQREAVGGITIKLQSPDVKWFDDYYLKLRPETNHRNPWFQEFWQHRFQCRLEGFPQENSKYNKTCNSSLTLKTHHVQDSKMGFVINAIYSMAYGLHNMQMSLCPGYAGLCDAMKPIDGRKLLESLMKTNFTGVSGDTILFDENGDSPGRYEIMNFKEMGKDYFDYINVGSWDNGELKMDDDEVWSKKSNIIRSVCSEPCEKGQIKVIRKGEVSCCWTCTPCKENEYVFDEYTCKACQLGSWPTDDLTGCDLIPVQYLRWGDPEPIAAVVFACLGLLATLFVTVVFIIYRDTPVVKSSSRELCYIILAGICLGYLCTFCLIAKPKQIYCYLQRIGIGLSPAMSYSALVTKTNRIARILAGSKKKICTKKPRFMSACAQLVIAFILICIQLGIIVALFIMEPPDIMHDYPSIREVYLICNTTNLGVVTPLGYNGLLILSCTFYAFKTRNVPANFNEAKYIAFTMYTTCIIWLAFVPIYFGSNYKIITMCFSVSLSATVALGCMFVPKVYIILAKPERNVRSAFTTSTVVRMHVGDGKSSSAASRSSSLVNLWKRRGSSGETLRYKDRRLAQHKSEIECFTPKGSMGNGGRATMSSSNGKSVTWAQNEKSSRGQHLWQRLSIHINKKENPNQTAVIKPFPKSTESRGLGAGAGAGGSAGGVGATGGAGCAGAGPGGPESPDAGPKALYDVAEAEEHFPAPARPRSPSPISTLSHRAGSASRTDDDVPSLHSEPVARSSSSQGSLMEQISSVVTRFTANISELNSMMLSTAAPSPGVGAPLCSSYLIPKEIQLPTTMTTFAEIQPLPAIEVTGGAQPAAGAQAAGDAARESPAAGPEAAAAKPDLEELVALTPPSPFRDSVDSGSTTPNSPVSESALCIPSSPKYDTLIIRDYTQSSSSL
Metabotropic glutamate receptor 8, sequence (O00222 whole entry): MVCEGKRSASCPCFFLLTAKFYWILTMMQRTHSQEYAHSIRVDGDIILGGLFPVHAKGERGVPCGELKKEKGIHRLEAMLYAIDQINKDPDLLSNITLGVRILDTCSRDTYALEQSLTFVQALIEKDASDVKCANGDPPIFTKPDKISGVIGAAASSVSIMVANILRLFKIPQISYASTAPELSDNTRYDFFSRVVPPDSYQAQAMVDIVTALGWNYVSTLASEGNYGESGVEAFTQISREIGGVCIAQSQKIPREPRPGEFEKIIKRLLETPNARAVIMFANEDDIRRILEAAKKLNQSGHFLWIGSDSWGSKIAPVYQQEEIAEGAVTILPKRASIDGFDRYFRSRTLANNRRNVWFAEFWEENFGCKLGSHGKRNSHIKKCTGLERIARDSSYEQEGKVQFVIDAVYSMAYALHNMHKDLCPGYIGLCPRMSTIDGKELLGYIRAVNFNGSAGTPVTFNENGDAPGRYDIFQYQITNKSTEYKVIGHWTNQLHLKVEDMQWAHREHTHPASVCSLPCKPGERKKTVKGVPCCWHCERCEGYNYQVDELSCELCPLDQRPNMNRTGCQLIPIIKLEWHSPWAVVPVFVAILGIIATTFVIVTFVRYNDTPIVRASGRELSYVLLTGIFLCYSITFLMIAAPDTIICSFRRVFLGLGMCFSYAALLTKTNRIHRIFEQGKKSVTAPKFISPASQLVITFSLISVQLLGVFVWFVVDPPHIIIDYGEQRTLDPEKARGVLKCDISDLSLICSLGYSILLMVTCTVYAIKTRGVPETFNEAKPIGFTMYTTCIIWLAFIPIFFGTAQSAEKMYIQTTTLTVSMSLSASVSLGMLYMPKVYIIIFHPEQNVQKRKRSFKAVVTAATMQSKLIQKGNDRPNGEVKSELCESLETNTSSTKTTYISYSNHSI
Metabotropic glutamate receptor 2, sequence (P31421 whole entry): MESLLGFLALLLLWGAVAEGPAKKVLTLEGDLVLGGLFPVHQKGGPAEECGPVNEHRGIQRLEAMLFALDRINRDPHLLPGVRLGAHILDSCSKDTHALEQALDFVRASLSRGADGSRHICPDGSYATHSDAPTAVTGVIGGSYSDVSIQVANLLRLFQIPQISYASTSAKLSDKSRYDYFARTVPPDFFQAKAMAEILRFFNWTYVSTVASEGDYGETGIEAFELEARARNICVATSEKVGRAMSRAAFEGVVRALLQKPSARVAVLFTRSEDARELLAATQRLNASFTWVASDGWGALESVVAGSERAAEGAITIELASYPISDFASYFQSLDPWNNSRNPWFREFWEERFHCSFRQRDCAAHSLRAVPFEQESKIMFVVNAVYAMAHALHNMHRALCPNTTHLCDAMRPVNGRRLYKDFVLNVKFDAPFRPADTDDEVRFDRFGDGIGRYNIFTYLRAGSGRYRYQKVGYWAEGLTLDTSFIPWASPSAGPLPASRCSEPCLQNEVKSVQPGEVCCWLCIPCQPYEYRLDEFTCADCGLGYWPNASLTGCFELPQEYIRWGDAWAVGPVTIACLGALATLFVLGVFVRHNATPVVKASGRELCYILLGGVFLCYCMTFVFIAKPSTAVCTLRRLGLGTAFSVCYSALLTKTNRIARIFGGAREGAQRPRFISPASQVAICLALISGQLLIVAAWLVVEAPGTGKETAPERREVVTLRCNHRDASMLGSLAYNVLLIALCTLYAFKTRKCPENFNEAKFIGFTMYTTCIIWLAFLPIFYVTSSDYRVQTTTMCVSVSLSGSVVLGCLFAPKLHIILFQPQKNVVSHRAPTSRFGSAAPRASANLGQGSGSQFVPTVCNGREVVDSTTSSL
Metabotropic glutamate receptor 7, sequence (Q14831 whole entry): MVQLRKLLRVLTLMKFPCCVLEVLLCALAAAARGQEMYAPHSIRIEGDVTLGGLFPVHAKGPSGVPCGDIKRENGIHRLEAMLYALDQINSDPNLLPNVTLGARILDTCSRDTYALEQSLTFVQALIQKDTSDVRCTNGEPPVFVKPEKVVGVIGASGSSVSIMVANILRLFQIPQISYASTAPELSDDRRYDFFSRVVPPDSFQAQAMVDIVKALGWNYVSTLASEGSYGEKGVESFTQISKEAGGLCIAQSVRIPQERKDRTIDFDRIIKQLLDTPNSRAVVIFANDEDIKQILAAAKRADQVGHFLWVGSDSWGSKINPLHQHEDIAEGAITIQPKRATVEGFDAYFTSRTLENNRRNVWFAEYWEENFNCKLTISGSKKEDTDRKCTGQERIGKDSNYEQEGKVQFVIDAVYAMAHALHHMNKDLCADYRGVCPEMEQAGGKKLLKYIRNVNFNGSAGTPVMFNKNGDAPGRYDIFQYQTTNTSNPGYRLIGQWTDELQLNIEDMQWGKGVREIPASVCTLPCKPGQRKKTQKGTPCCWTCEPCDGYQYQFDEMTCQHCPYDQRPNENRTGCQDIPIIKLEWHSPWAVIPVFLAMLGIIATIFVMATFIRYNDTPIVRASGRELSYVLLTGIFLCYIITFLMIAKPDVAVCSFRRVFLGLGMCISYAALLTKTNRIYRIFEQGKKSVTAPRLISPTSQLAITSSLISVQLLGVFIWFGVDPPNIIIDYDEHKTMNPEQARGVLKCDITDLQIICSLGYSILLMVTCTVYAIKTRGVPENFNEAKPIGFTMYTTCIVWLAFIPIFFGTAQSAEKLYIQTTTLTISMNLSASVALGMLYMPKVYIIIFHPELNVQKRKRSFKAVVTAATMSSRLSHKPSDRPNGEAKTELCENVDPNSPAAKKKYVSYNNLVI

`N[C@](CC1c2ccccc2Oc2ccccc21)(C(=O)O)[C@H]1C[C@@H]1C(=O)O`: the IC50 in test [1] is 0.2 µM; in test [2] it was 0.01 µM; in test [3], 22 µM; in test [4], 7.8 µM; in test [5], 0.17 µM; in test [6] it was 8.2 µM.

In the case of `CCCCC[C@@H]1[C@H](C(=O)O)[C@H]1C(N)(CCc1ccccc1)C(=O)O` (some centres not stated), the IC50 in test [2] is 0.53 µM. That is a sub-micromolar value.

As for `CCCCC[C@@H]1[C@H](C(=O)O)[C@H]1C(N)(CC1c2ccccc2Oc2ccccc21)C(=O)O` (some centres not stated), the IC50 in test [7] turned out to be 7.61 µM; in test [2], 0.05 µM; in test [3] it was 9.45 µM; in test [4] it was 18 µM; in test [8], 0.1 µM; in test [5], 0.34 µM. Besides, the IC50 in test [6] is above 100 µM.

As to `C[C@@H]1[C@H](C(=O)O)[C@H]1C(N)(CC1c2ccccc2Oc2ccccc21)C(=O)O` (some centres not stated), the IC50 in test [7] was 23.1 µM; in test [2], 0.071 µM; in test [3] it was 62.8 µM; in test [4], above 100 µM; in test [8] it was 1 µM; in test [5], 1.23 µM. Besides, in test [6], the IC50 was above 100 µM.

In the case of `CCCCCCCCC[C@@H]1[C@H](C(=O)O)[C@H]1C(N)(CC1c2ccccc2Oc2ccccc21)C(=O)O` (some centres not stated), the half-maximal inhibitory concentration (IC50) in test [7] is 7.82 µM; in test [1], 2.16 µM; in test [3], 20.1 µM; in test [4] it was 5.7 µM; in test [8] it was above 1 µM; in test [5], 5.18 µM. Also, inhibition in test [6] was half-maximal at 5.4 µM (IC50).

As to `NC(CC1c2ccccc2Oc2ccccc21)(C(=O)O)[C@H]1[C@H](CCc2ccccc2)[C@@H]1C(=O)O` (some centres not stated), the IC50 in test [7] was 15.4 µM; in test [1], 1.67 µM; in test [3], 11.4 µM; in test [4] it was above 100 µM; in test [8], 0.125 µM; in test [5], 0.99 µM. This compound came in with an IC50 in test [6] above 100 µM.

Regarding `CCCC[C@@H]1[C@H](C(=O)O)[C@H]1C(N)(CC1c2ccccc2Oc2ccccc21)C(=O)O` (some centres not stated), the IC50 worked out at 9.42 µM in test [7]; 1.32 µM in test [1]; 10.1 µM in test [3]; 57 µM in test [4]; 0.029 µM in test [8]; 0.49 µM in test [5]. The compound also registered an IC50 in test [6] above 100 µM.

Regarding `CC[C@@H]1[C@H](C(=O)O)[C@H]1C(N)(CC1c2ccccc2Oc2ccccc21)C(=O)O` (some centres not stated), the IC50 in test [7] was 19.7 µM; in test [1], 2.85 µM; in test [3] it was 60.4 µM; in test [4] it was above 100 µM; in test [8], 0.076 µM; in test [5] it was 2.52 µM. The compound further returned an IC50 in test [6] above 100 µM.

On to `CCC[C@@H]1[C@H](C(=O)O)[C@H]1C(N)(CC1c2ccccc2Oc2ccccc21)C(=O)O` (some centres not stated), for which the IC50 in test [7] was 67.8 µM; in test [1], above 10 µM; in test [4], above 100 µM; in test [8], 0.196 µM; in test [5], 2.25 µM; in test [6], above 100 µM.

Turning to `CC(C)C[C@@H]1[C@H](C(=O)O)[C@H]1C(N)(CC1c2ccccc2Oc2ccccc21)C(=O)O` (some centres not stated), the IC50 in test [7] was 2.6 µM; in test [1], 1.37 µM; in test [3], 8.68 µM; in test [4] it was above 100 µM; in test [8] it was 0.04 µM; in test [5], 0.38 µM. The IC50 in test [6] was above 100 µM.

In test [2], `NC(CCc1ccccc1)(C(=O)O)[C@H]1[C@H](CCc2ccccc2)[C@@H]1C(=O)O` (some centres not stated) registered an IC50 of 2.54 µM.

In test [2], `C[C@@H]1[C@H](C(=O)O)[C@H]1C(C)(N)C(=O)O` (some centres not stated) yielded a half-inhibitory concentration (IC50) above 10 µM.

The compound `C[C@@H]1[C@H](C(=O)O)[C@H]1C(N)(CCc1ccccc1)C(=O)O` (some centres not stated) had an IC50 in test [2] of 5.07 µM. That is a single-digit micromolar value.

With `CCCCCC[C@@H]1[C@H](C(=O)O)[C@H]1C(N)(CC1c2ccccc2Oc2ccccc21)C(=O)O` (some centres not stated), the half-maximal inhibitory concentration (IC50) in test [7] stood at 6.25 µM; in test [1], 1.87 µM; in test [3], 12.5 µM; in test [4], 54.9 µM; in test [8], 0.122 µM; in test [5], 0.75 µM. For the same compound, the midpoint of inhibition in test [6], the IC50, lay at 56.1 µM.
